According to patent US20260347338A1, “PYRIMIDINE/PYRIDINE DERIVATIVES OR SALTS THEREOF AND PHARMACEUTICAL COMPOSITIONS COMPRISING THE SAME” (YUHAN CORPORATION, priority 2023, published 2026):
Counter-ions that a name gives are not always drawn.

What follows are compounds tested against T1, human recombinant HPK1 (Homo sapiens, UniProt Q92918) (assay: Inhibitory activity against human recombinant HPK1 (TR-FRET)). Conditions: ULight-p70S6K peptide, ATP at Km, room temperature, 1 hour, 0.32 to 1000 nM compound.
T1 construct: purchased BPS Bioscience
Format: biochemical
Method in brief: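 IC50 classes A–D use 10, 50 and 100 nM cut-offs, derived from TR-FRET signal inhibition relative to DMSO controls. Human recombinant HPK1 phosphorylated ULight-p70S6K peptide at Km ATP for 1 h, room temperature, pH 7.4; test range 0.32–1000 nM final, detection with Eu-labelled antibody after EDTA quench.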

T1 sequence (Q92918 whole entry): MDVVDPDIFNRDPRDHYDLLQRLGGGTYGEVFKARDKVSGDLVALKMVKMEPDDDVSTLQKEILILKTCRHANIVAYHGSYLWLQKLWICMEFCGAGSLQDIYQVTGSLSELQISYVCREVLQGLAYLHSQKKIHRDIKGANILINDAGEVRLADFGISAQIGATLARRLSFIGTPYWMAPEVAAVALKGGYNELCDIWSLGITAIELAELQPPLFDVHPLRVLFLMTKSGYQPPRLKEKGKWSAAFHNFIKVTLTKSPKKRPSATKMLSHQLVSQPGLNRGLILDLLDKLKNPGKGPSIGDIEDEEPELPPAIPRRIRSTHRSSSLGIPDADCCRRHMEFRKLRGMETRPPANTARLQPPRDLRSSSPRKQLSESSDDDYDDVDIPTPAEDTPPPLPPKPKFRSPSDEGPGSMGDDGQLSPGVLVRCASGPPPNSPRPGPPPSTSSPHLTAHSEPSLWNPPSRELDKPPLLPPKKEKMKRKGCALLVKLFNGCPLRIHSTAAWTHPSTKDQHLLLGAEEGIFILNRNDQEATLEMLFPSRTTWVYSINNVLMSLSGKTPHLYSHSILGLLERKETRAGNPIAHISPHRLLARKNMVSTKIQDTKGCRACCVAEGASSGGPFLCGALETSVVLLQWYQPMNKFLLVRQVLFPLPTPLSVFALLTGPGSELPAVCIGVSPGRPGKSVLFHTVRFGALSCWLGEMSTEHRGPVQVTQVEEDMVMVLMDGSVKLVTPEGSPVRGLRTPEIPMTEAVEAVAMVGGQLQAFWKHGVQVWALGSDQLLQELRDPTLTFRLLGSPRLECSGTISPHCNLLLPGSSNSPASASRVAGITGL

IC50 [µM]	Structure (SMILES)
≤ 0.01	COc1cccc(F)c1-c1nc(Nc2cc(N3CCC[C@H](O)C3)c(-c3cnn(CC(F)(F)F)c3)cn2)ccc1N [Example 180, (3S)-1-(2-((5-amino-6-(2-fluoro-6-methoxyphenyl)pyridin-2-yl)amino)-5-(1-(2,2,2-trifluoroethyl)-1H-pyrazol-4-yl)pyridin-4-yl)piperidin-3-ol]
0.05 to 0.1	COc1cccc(F)c1-c1nccc(Nc2cc(N3CCC[C@H](O)C3)c(-c3ccc4nncn4c3)cn2)n1 [Example 62, (S)-1-(5-([1,2,4]triazolo[4,3-a]pyridin-6-yl)-2-((2-(2-fluoro-6-methoxyphenyl)pyrimidin-4-yl)amino)pyridin-4-yl)piperidin-3-ol]
≤ 0.01	COc1cccc(F)c1-c1nccc(Nc2cc(N3CCC[C@H](N)C3)c(-c3ccc4c(c3)OCC(=O)N4)cn2)n1 [Example 260, (S)-7-(4-(3-aminopiperidin-1-yl)-6-((2-(2-fluoro-6-methoxyphenyl)pyrimidin-4-yl)amino)pyridin-3-yl)-2H-benzo[b][1,4]oxazin-3(4H)-one hydrochloride]
≤ 0.01	COc1cccc(F)c1-c1nccc(Nc2cc(N3CCC[C@H](N)C3)c(-c3cccc(C(=O)N(C)C)c3)cn2)n1 [Example 280, (S)-3-(4-(3-aminopiperidin-1-yl)-6-((2-(2-fluoro-6-methoxyphenyl)pyrimidin-4-yl)amino)pyridin-3-yl)-N,N-dimethylbenzamide hydrochloride]
≤ 0.01	COc1cccc(F)c1-c1nccc(Nc2cc(N3CCC[C@@H](N)C3)c(-c3cnn(C4CCOCC4)c3)cn2)n1 [Example 53, (R)-N-(4-(3-aminopiperidin-1-yl)-5-(1-(tetrahydro-2H-pyran-4-yl)-1H-pyrazol-4-yl)pyridin-2-yl)-2-(2-fluoro-6-methoxyphenyl)pyrimidin-4-amine]
≤ 0.01	COc1cccc(F)c1-c1nccc(Nc2cc(N3CCC[C@H](O)C3)c(-c3ccc(N4CCN(C)CC4)cc3)cn2)n1 [Example 19, (S)-1-(2-((2-(2-fluoro-6-methoxyphenyl)pyrimidin-4-yl)amino)-5-(4-(4-methylpiperazin-1-yl)phenyl)pyridin-4-yl)piperidin-3-ol]
0.05 to 0.1	COc1cccc(F)c1-c1nccc(Nc2cc(N3CCC[C@H](O)C3)c(-c3ccc(C(F)(F)F)nc3)cn2)n1 [Example 57, (S)-1-(6-((2-(2-fluoro-6-methoxyphenyl)pyrimidin-4-yl)amino)-6′-(trifluoromethyl)-[3,3′-bipyridin]-4-yl)piperidin-3-ol]
≤ 0.01	COc1cccc(F)c1-c1nccc(Nc2cc(N3CCC[C@H](N)C3)c(-c3ccc(F)c(C)c3)cn2)n1 [Example 282, (S)-N-(4-(3-aminopiperidin-1-yl)-5-(4-fluoro-3-methylphenyl)pyridin-2-yl)-2-(2-fluoro-6-methoxyphenyl)pyrimidin-4-amine hydrochloride]
0.01 to 0.05	COc1cccc(F)c1-c1nccc(Nc2cc(N3CCC[C@H](O)C3)c(-c3cccnc3)cn2)n1 [Example 42, (S)-1-(6-((2-(2-fluoro-6-methoxyphenyl)pyrimidin-4-yl)amino)-[3,3′-bipyridin]-4-yl)piperidin-3-ol]
≤ 0.01	COc1cccc(F)c1-c1nccc(Nc2cc(N3CCC[C@H](N)C3)c(-c3cnn([C@H]4CCOC4)c3)cn2)n1 [Example 298, N-(4-((S)-3-aminopiperidin-1-yl)-5-(1-((S)-tetrahydrofuran-3-yl)-1H-pyrazol-4-yl)pyridin-2-yl)-2-(2-fluoro-6-methoxyphenyl)pyrimidin-4-amine hydrochloride]
≤ 0.01	COC(=O)C(C)(C)n1cc(-c2cnc(Nc3ccnc(-c4c(F)cccc4OC)n3)cc2N2CCC[C@H](N)C2)cn1 [Example 278, methyl (S)-2-(4-(4-(3-aminopiperidin-1-yl)-6-((2-(2-fluoro-6-methoxyphenyl)pyrimidin-4-yl)amino)pyridin-3-yl)-1H-pyrazol-1-yl)-2-methylpropanoate hydrochloride]
≤ 0.01	COc1cccc(F)c1-c1nccc(Nc2cc(N3CCC[C@H](O)C3)c(-c3ccc(C4CCOCC4)nc3)cn2)n1 [Example 31, (S)-1-(6-((2-(2-fluoro-6-methoxyphenyl)pyrimidin-4-yl)amino)-6′-(tetrahydro-2H-pyran-4-yl)-[3,3′-bipyridin]-4-yl)piperidin-3-ol]

More lines, now with the values behind:

Structure (SMILES)	IC50 [µM]
COc1cccc(F)c1-c1nc(Nc2cc(N3CCC[C@H](N)C3)c(-c3cnn(C4CC4)c3)cn2)ccc1C#N [Example 329, 6-((4-((S)-3-aminopiperidin-1-yl)-5-(1-cyclopropyl-1H-pyrazol-4-yl)pyridin-2-yl)amino)-2-(2-fluoro-6-methoxyphenyl)nicotinonitrile hydrochloride]	≤ 0.01
COc1cc(F)cc(F)c1-c1nc(Nc2cc(N3CC[C@@H](F)[C@H](N)C3)c(-c3cnn(C(F)F)c3)cn2)ccc1N [Example 216, N^2-(4-((3R,4R)-3-amino-4-fluoropiperidin-1-yl)-5-(1-(difluoromethyl)-1H-pyrazol-4-yl)pyridin-2-yl)-6-(2,4-difluoro-6-methoxyphenyl)pyridin-2,5-diamine hydrochloride]	≤ 0.01
O[C@H]1CCCN(c2cc(Nc3ccnc(-c4ccc5cccnc5c4F)n3)ncc2-c2cnn(C3CCOCC3)c2)C1 [Example 29, (S)-1-(2-((2-(8-fluoroquinolin-7-yl)pyrimidin-4-yl)amino)-5-(1-(tetrahydro-2H-pyran-4-yl)-1H-pyrazol-4-yl)pyridin-4-yl)piperidin-3-ol]	≤ 0.01
COc1cccc(F)c1-c1nccc(Nc2cc(N3CCC(N(C)C)C3)c(-c3cnn(C4CCOCC4)c3)cn2)n1 (stereo not drawn) [Example 44, N-(4-(3-(dimethylamino)pyrrolidin-1-yl)-5-(1-(tetrahydro-2H-pyran-4-yl)-1H-pyrazol-4-yl)pyridin-2-yl)-2-(2-fluoro-6-methoxyphenyl)pyrimidin-4-amine]	0.01 to 0.05
COc1cncc(-c2nccc(Nc3cc(N4CCC[C@H](O)C4)c(C(=O)C4CC4)cn3)n2)c1 [Example 3, (S)-cyclopropyl(4-(3-hydroxypiperidin-1-yl)-6-((2-(5-methoxypyridin-3-yl)pyrimidin-4-yl)amino)pyridin-3-yl)methanone]	0.05 to 0.1
COc1cccc(F)c1-c1nccc(Nc2cc(N3CC[C@H](OC)[C@H](N)C3)c(-c3cnn(C(F)F)c3)cn2)n1 [Example 253, N-(4-((3R,4S)-3-amino-4-methoxypiperidin-1-yl)-5-(1-(difluoromethyl)-1H-pyrazol-4-yl)pyridin-2-yl)-2-(2-fluoro-6-methoxyphenyl)pyrimidin-4-amine]	≤ 0.01
COc1cccc(F)c1-c1nc(Nc2cc(N3CCC[C@H](N)C3)c(-c3cnn(C(F)F)c3)cn2)ccc1S(C)(=O)=O [Example 315, 4-((S)-3-aminopiperidin-1-yl)-5-(1-(difluoromethyl)-1H-pyrazol-4-yl)-N-(6-(2-fluoro-6-methoxyphenyl)-5-(methylsulfonyl)pyridin-2-yl)pyridin-2-amine hydrochloride]	≤ 0.01
COc1cccc(F)c1-c1nccc(Nc2cc(N3CC[C@H](NC(C)=O)C3)c(-c3cnn(C4CCOCC4)c3)cn2)n1 [Example 128, (S)-N-(1-(2-((2-(2-fluoro-6-methoxyphenyl)pyrimidin-4-yl)amino)-5-(1-(tetrahydro-2H-pyran-4-yl)-1H-pyrazol-4-yl)pyridin-4-yl)pyrrolidin-3-yl)acetamide]	> 0.1
COc1cccc(F)c1-c1nc(Nc2cc(N3CCC[C@H](N)C3)c(C#Cc3cnn(C(F)(F)F)c3)cn2)ccc1[N+](=O)[O-] [Example 156, 4-((S)-3-aminopiperidin-1-yl)-N-(6-(2-fluoro-6-methoxyphenyl)-5-nitropyridin-2-yl)-5-((1-(trifluoromethyl)-1H-pyrazol-4-yl)ethynyl)pyridin-2-amine hydrochloride]	≤ 0.01
N[C@H]1CCCN(c2cc(Nc3ccnc(-c4cccnc4O)n3)ncc2-c2cnn(C3CCOCC3)c2)C1 [Example 80, (S)-3-(4-((4-(3-aminopiperidin-1-yl)-5-(1-(tetrahydro-2H-pyran-4-yl)-1H-pyrazol-4-yl)pyridin-2-yl)amino)pyrimidin-2-yl)pyridin-2-ol hydrochloride]	≤ 0.01
COc1cc(F)cc(F)c1-c1nccc(Nc2cc(N3CCC[C@H](N)C3)c(C#CC(C)(C)O)cn2)n1 [Example 313, (S)-4-(4-(3-aminopiperidin-1-yl)-6-((2-(2,4-difluoro-6-methoxyphenyl)pyrimidin-4-yl)amino)pyridin-3-yl)-2-methylbut-3-yn-2-ol]	≤ 0.01
COc1cccc(F)c1-c1nccc(Nc2cc(N3CCC[C@H](N)C3)c(-c3ccc(C(=O)N4CCNCC4)cc3)cn2)n1 [Example 265, (S)-(4-(4-(3-aminopiperidin-1-yl)-6-((2-(2-fluoro-6-methoxyphenyl)pyrimidin-4-yl)amino)pyridin-3-yl)phenyl)(piperazin-1-yl)methanone hydrochloride]	≤ 0.01
COc1cccc(F)c1-c1nccc(Nc2cc(N3CCC[C@H](N)C3)c(-c3cnn(CCN4CCOCC4)c3)cn2)n1 [Example 162, (S)-N-(4-(3-aminopiperidin-1-yl)-5-(1-(2-morpholinoethyl)-1H-pyrazol-4-yl)pyridin-2-yl)-2-(2-fluoro-6-methoxyphenyl)pyrimidin-4-amine hydrochloride]	≤ 0.01
COc1cccc(F)c1-c1nccc(Nc2cc(N3CCC[C@H](N)C3)c(-c3ccc(C(=O)N4CCOCC4)cc3)cn2)n1 [Example 255, (S)-(4-(4-(3-aminopiperidin-1-yl)-6-((2-(2-fluoro-6-methoxyphenyl)pyrimidin-4-yl)amino)pyridin-3-yl)phenyl)(morpholino)methanone hydrochloride]	≤ 0.01
COc1cccc(F)c1-c1nc(Nc2cc(N3CCC[C@H](N)C3)c(-c3cnn(C(F)F)c3)cn2)ccc1[N+](=O)[O-] [Example 146, 4-((S)-3-aminopiperidin-1-yl)-5-(1-(difluoromethyl)-1H-pyrazol-4-yl)-N-(6-(2-fluoro-6-methoxyphenyl)-5-nitropyridin-2-yl)pyridin-2-amine hydrochloride]	≤ 0.01
